Assays:
[1] = tested on: HBCs derived from ES cells (H9); test: ALB/CK7 colony count of HBCs cultured on laminin-coated culture dishes (immunostaining); format: cell-based, human; details: HBCs seeded at 200 cells/cm^2 on laminin-coated dish, medium 3, 5 days after seeding
Description: (§1) In Example 1 and Comparative Example 1, with regard to HBCs derived from ES cells obtained in Reference Example 2, properties of cells treated with laminins were confirmed. The coating treatment was performed on cell culture dishes by using various types of human laminins with different isoforms (laminin 111 (LN111), laminin 211 (LN211), laminin 411 ([…]), and laminin 511 (LN511)). The coating treatment was conducted by preparing 20 μg/ml of each Laminin Coating Solution, adding the Laminin Coating Solution to each well at 5 μg/cm^2, and leaving the cell culture dishes at room temperature for 1 hour or more.
In Example 2 and Comparative Example 2, HBCs derived from ES cells (H9) obtained in Reference Example 2 were seeded in each well of various types of laminin-coated culture dishes at 200 cells/cm^2 in a similar manner to Example 1 and Comparative Example 1, the HBCs were cultured by using the medium 3, and the expressions of ALB and CK7 by cultured cells were confirmed. The HBCs were fixed by using a 4% paraformaldehyde solution 5 days after seeding the HBCs, immunostaining was performed, and thereafter, the numbers of colonies which were ALB positive (+)/CK7 positive (+), ALB positive (+)/CK7 negative (−) and ALB negative (−)/CK7 […] were counted. When the cells were cultured in the LN111-coated culture dish, the highest number of the ALB positive (+)/CK7 positive (+) colonies, which were colonies of hepatoblast-like cells, was able to be confirmed.

[2] = tested on: HBCs from human ES cells (H9); test: Marker positive rates of HBCs passaged 8 times on LN111- or LN111E8-coated culture dish (flow cytometry); format: cell-based
Description: By the same procedure as in Example 9, HBCs were seeded to each well of various types of laminin coated culture dishes at 7.5×10^4 cells/cm^2 by using a LN111- or LN111E8-coated culture dish, and the medium was exchanged after 15 minutes (the number of passages of 0, day 9). After that, the cells were cultured for from 6 days to 7 days with the medium being exchanged every day, and a cell suspension was prepared so that the number of cells was 7.5×10^4 cells/cm^2. Then, the cells were passaged on the LN111-coated culture dish or the LN111E8-coated culture dish. At the time when such passage operations were repeated 8 times (P8), the positive rate of AFP (%) was confirmed by flow cytometry analysis. […] In addition, also with regard to markers other than AFP (CD133, EpCAM, ALB, CK7, and CK19), their positive rates were confirmed by flow cytometry analysis at the time when the passage culture was repeated up to 8 times (P8).

[3] = tested on: HBCs derived from ES cells (H9); test: Differentiation induction of LN111-maintained HBCs to bile duct epithelial cells (EGF, ILGF2, collagen gel); format: cell-based, human; details: HBC P10 maintained on LN111 vs HBC P0; 14 days differentiation
Description: Specifically, in Example 6, HBCs (H9) without passage (HBC P0), HBCs passaged 10 times (HBC P10), and HBCs derived from a single cell (clone) were embedded in collagen gel by using a medium containing EGF (50 ng/ml) and ILGF2 (20 ng/ml), and were cultured for 14 days. Then, the expression of each of marker genes before and after the differentiation induction treatment to a bile duct by EGF and ILGF2 was confirmed. The expression was confirmed by a RT-PCR technique (FIG. 17). Commercially available primer sets and reagents were used for RT-PCR measurement. SOX9 and Type IV collagen are markers of bile duct epithelial cells, and ALB and αAT are markers of mature hepatocytes.
Each of relative expression levels of marker genes of bile duct epithelial cells and mature hepatocytes was confirmed by defining the expression level in cells of […] before being subjected to the differentiation induction as 1. The expressions of markers of bile duct epithelial cells were increased by the differentiation induction treatment. In addition, the expression levels of bile duct marker genes (SOX9 and Type IV collagen) by bile duct epithelial cells which were induced to differentiate from HBC P10 were higher than those which were induced to differentiate from HBC P0 (FIG. 17).

[4] = tested on: HBCs derived from ES cells; test: AFP expression of cells cultured on various laminin-coated culture dishes; format: cell-based, human; details: cells cultured on laminin-coated dish, compared with cells immediately after passage (P0) (FIG. 9)
Description: as §1
(§2) Next, the cells on day 9 after treated by the same procedure as in Reference Example 2 were seeded on each well of various types of laminin coated culture dishes at 7.5×10^4 cells/cm^2, the medium was exchanged after 15 minutes, and cells attached to the dishes were used as HBCs and cells not attached to the dishes were used as NHBCs (see FIG. 5). With regard to cells before passage (the cell population which contained both HBCs and NHBCs: before), HBCs, and NHBCs, the expressions of integrin α6 (ITGA6) and integrin β1 (ITGB1) were confirmed. As a result, almost all cells of HBCs were confirmed to be co-positive (FIG. 7). The HBCs attached to the dishes were each further cultured for 7 days. […]

[5] = tested on: HBCs derived from ES cells (H9) and HBCs derived from iPS cells (Dotcom); test: Repeated passage (15 times) of HBCs on LN111-coated culture dish: cell number and AFP flow cytometry; format: cell-based, human
Description: In Example 3, the proliferative capacities of HBCs derived from ES cells (H9) obtained in Reference Example 2 and HBCs derived from iPS cells (Dotcom) generated by the same procedure were confirmed. The cells derived from ES cells or those derived from iPS cells on day 9 obtained by treating the cells by the same procedure as in Reference Example 2 were seeded in each well of the LN111-coated culture dish at 7.5×10^4 cells/cm^2, and the medium was exchanged after 15 minutes (the number of times of passage was 0, on day 9). After that, the cells were cultured for from 6 days to 7 days with the medium being exchanged every day, a cell suspension was prepared so that the number of cells was 7.5×10^4 cells/cm^2, and the cells were passaged on the LN111-coated culture dish. Such passage operations were performed 15 times.

[6] = tested on: HBCs derived from ES cells (H9); test: Differentiation induction of LN111-maintained HBCs to hepatocytes (HGF, OsM, DEX on Matrigel); format: cell-based, human; details: HBC P10 maintained on LN111 vs HBC P0; 14 days differentiation
Description: In view of the foregoing, in Example 5, HBCs (H9) with the number of passages of 0 (HBC P0), HBCs (H9) with the number of passages of 10 (HBC P10), and HBCs derived from a single cell (HBC clone) were cultured in a medium containing HGF, OsM (20 ng/ml), and DEX (10^−6 M) on Matrigel for 14 days, and the expression of each of marker genes before and after the differentiation induction treatment into liver by HGF, OsM, and DEX was confirmed. Clone cells were obtained by seeding cells on a culture dish at 200 cells/cm^2. The expression of each of gene markers was confirmed by real-time RT-PCR. Commercially available primer sets and reagents were used for real-time RT-PCR measurement. […]
Each of relative expression levels of marker genes of mature hepatocytes was confirmed by defining the expression level by human frozen hepatocytes cultured for 48 hours after being seeded on a culture dish as 1. […] It was confirmed that the differentiation rate into mature hepatocytes of hepatocytes obtained by differentiation induction on the HBCs (H9) with the number of passages of 10 (HBC P10) was higher than that of the hepatocytes obtained by differentiation induction on the HBCs (HBC P0), also from the ASGR1 positive cell rates analyzed by flow cytometry (FIG. 16A) and the amounts of ALB secretion and Urea secretion (FIGS. 16B and 16C).

[7] = tested on: HBCs derived from ES cells; test: Proliferation of HBCs on various laminin-coated culture dishes; format: cell-based, human; details: attached HBCs cultured for 7 days; compared among LN111, LN211, LN411, LN511 coated dishes (FIG. 8)
Description: as §1, §2

Substance	number of ALB+/CK7+ colonies [1]	number of ALB+/CK7− colonies [1]	number of ALB−/CK7+ colonies [1]	positive rate of AFP after passage ([2]; passaged 8 times (P8) (FIG. 24))	positive rates of markers other than AFP (CD133, EpCAM, ALB, CK7, CK19) ([2]; passaged 8 times (P8) (FIG. 25))	differentiation ability to bile duct epithelial cells [3]	expression of AFP [4]	AFP positive cells ([5]; HBC P1, P10, P15, flow cytometry (FIG. 11))	proliferation of cultured cells over passages ([5]; passage every 6 to 7 days, 15 passages (FIG. 10))	differentiation efficiency and differentiation ability to hepatocytes [6]	proliferation rate of HBCs [7]
LN411: human recombinant laminin 411, comparative dish coating	12	6	31								
LN211: human recombinant laminin 211, comparative dish coating	25	3	12								
LN111: human recombinant laminin 111 (α1β1γ1), used to coat cell culture dishes	82	2	5	expressions of AFP were maintained	expressions of all markers were maintained	improved	expressed AFP in a similar manner to a group of cells immediately after passage (P0)	high expression rates of AFP regardless of the number of passages	continued to proliferate even after passaged 15 times	improved	highest
LN511: human recombinant laminin 511, comparative dish coating	14	2	36								

— patent US20160046904A1, “Method For Culturing Hepatoblast-Like Cells And Culture Product Thereof” (NATIONAL INSTITUTES OF BIOMEDICAL INNOVATION, HEALTH AND …, priority 2013, published 2016)
